Results on 13 molecules are retold here after patent EP3784230B1, “THE USE OF TERPENIC COUMARINE DERIVATIVE MOLECULES IN THE TREATMENT OF CANCER DISEASE” (T.C. Istanbul Medipol Universitesi, priority 2018, dated 2019).

Read-outs that look alike come from different tables or passages of the source. A value given as a limit tells only on which side of the number the result lay.

One test relates to COLO205. The experiment in a line: Cytotoxic activity (IC50) on cancer cell line COLO205. The format is cell-based. Conditions: Homo sapiens, COLO 205, read-out: Cytotoxic Activity ( IC 50 ). From the text: (§1) The inventors have determined the cytotoxic activity (IC 50 values) of the compounds according to the invention together with various agents present in the prior art on cell lines of different types of cancer.

Another test relates to KM12. As to the kind of experiment: Cytotoxic activity (IC50) on cancer cell line KM12. The format is cell-based. Conditions: Homo sapiens, read-out: Cytotoxic Activity ( IC 50 ).
Source text: as §1

A further test concerns A498. The experiment in a line: Cytotoxic activity (IC50) on cancer cell line A498. The format is cell-based. Conditions: Homo sapiens, read-out: Cytotoxic Activity ( IC 50 ).
Source text: as §1

Test [1] has as its system UO31 cell line. The experiment in a line: Cytotoxic activity (IC50) on kidney cancer cell line UO31. The format is cell-based. The conditions noted are these: Homo sapiens, UO-31; U031 (kidney cancer cell line); read-out: Cytotoxic Activity ( IC 50 ).
Source text: as §1
The UO31 cell line is known to be the kidney cancer cell line. Taxol, vinblastine and vincristine anti-cancer agents are used against the kidney cancer in the state of the art.

The next test deals with A673. The experiment in a line: Cytotoxic activity (IC50) on cancer cell line A673. The format is cell-based. Conditions: Homo sapiens, read-out: Cytotoxic Activity ( IC 50 ).
Source text: as §1

Another test deals with TC32. As to the kind of experiment: Cytotoxic activity (IC50) on cancer cell line TC32. The conditions noted are these: Homo sapiens, TC-32, read-out: Cytotoxic Activity ( IC 50 ). The format is cell-based.
Source text: as §1

Test [2] deals with UO31 cell line. Conditions: Ferguson R.E. et al., Int. J. Cancer 2005, 115, 155-163, read-out: IC 50 value; cited from earlier work.

As to `CC(C)=CCC/C(C)=C/CC/C(C)=C/COc1ccc2ccc(=O)oc2c1` [REFERENCE MOLECULE I], the IC50 in the test on COLO205 is greater than 50 µM; in the test on KM12, greater than 50 µM; in the test on A498, greater than 50 µM; with UO31 cell line [1], 1800 nM; in the test on A673 it was greater than 50 µM; in the test on TC32, greater than 50 µM.

Take `CC(=O)O[C@H]1C(=O)[C@@]2(C)[C@H]([C@H](OC(=O)c3ccccc3)[C@]3(O)C[C@H](OC(=O)[C@H](O)[C@@H](NC(=O)c4ccccc4)c4ccccc4)C(C)=C1C3(C)C)[C@]1(OC(C)=O)CO[C@@H]1C[C@@H]2O` [taxol]: the IC50 in the test on UO31 cell line [2] is greater than 50 µM.

As to `CC[C@]1(O)C[C@@H]2CN(CCc3c([nH]c4ccccc34)[C@@](C(=O)OC)(c3cc4c(cc3OC)N(C)[C@H]3[C@@](O)(C(=O)OC)[C@H](OC(C)=O)[C@]5(CC)C=CCN6CC[C@]43[C@@H]65)C2)C1` [vinblastine], the IC50 in the test with UO31 cell line [2] is greater than 100 µM.

Turning to `CC[C@]1(O)C[C@H]2CN(CCc3c([nH]c4ccccc34)[C@@](C(=O)OC)(c3cc4c(cc3OC)N(C=O)[C@H]3[C@@](O)(C(=O)OC)[C@H](OC(C)=O)[C@]5(CC)C=CCN6CC[C@]43[C@@H]65)C2)C1` [vincristine], in the test on UO31 cell line [2], the IC50 is greater than 100 µM.

Take `C=C1CC[C@@H]2[C@](C)(C=O)[C@@H](O)CC[C@@]2(C)[C@@H]1COc1ccc2ccc(=O)oc2c1` [EXAMPLE MOLECULE V]: the IC50 in the test on COLO205 is greater than 50 µM; in the test with KM12 it was greater than 50 µM; in the test on A498, greater than 50 µM; in the test with UO31 cell line [1] it was 24 nM; in the test with A673 it was greater than 50 µM; with TC32, greater than 50 µM.

Take `C/C(=C\COc1ccc2ccc(=O)oc2c1)CC/C=C(\C)CCC(O)C(C)(C)O` (stereo not drawn) [REFERENCE MOLECULE II]: the IC50 was greater than 50 µM in the test with COLO205; greater than 50 µM in the test with KM12; greater than 50 µM with A498; 7600 nM in the test with UO31 cell line [1]; greater than 50 µM in the test on A673; greater than 50 µM with TC32.

In the case of `C=C1CC[C@@H]2[C@](C)(CO)[C@H](O)CC[C@@]2(C)[C@@H]1COc1ccc2ccc(=O)oc2c1` [REFERENCE MOLECULE V], the IC50 with COLO205 was greater than 50 µM; in the test on KM12, greater than 50 µM; with A498, greater than 50 µM; with UO31 cell line [1], greater than 50000 nM; in the test on A673, greater than 50 µM; in the test on TC32, greater than 50 µM.

Take `C=C1CC[C@@H]2C(C)(C)C(=O)CC[C@@]2(C)[C@@H]1COc1ccc2ccc(=O)oc2c1` [REFERENCE MOLECULE III]: the IC50 in the test with COLO205 was greater than 50 µM; with KM12 it was greater than 50 µM; in the test on A498 it was greater than 50 µM; in the test on UO31 cell line [1], 11000 nM; with A673, greater than 50 µM; in the test with TC32 it was greater than 50 µM.

In the case of `C=C1CC[C@@H]2C(C)(C)[C@@H](O)CC[C@@]2(C)[C@@H]1COc1ccc2ccc(=O)oc2c1` [EXAMPLE MOLECULE II], the IC50 in the test on COLO205 is greater than 50 µM; in the test with KM12, 9.1 µM; with A498, 20 µM; with UO31 cell line [1], 380 nM; with A673, greater than 50 µM; in the test on TC32 it was greater than 50 µM.

Turning to `C=C1CC[C@@H]2C(C)(C)[C@H](O)CC[C@@]2(C)[C@@H]1COc1ccc2ccc(=O)oc2c1` [EXAMPLE MOLECULE I], the IC50 in the test with COLO205 was 19 µM; in the test on KM12, 2.5 µM; in the test with A498, 21 µM; with UO31 cell line [1] it was 750 nM; in the test with A673 it was greater than 50 µM; in the test with TC32, 45 µM.

With `C=C1CC[C@@H]2[C@](C)(COC(C)=O)[C@@H](O)CC[C@@]2(C)[C@@H]1COc1ccc2ccc(=O)oc2c1` [EXAMPLE MOLECULE III], the IC50 was greater than 50 µM in the test on COLO205; greater than 50 µM with KM12; greater than 50 µM with A498; 17 nM in the test with UO31 cell line [1]; greater than 50 µM with A673; greater than 50 µM in the test on TC32.

As for `C=C1CC[C@@H]2[C@](C)(COC(C)=O)[C@H](O)CC[C@@]2(C)[C@@H]1COc1ccc2ccc(=O)oc2c1` [EXAMPLE MOLECULE IV], the IC50 was greater than 50 µM in the test with COLO205; greater than 50 µM in the test on KM12; greater than 50 µM in the test with A498; 370 nM in the test with UO31 cell line [1]; greater than 50 µM in the test with A673; greater than 50 µM in the test on TC32.

Take `C=C1CC[C@H]2[C@@](C)(CCC(=O)[C@@]2(C)COC(C)=O)[C@@H]1COc1ccc2ccc(=O)oc2c1` [REFERENCE MOLECULE IV]: the IC50 with COLO205 was greater than 50 µM; in the test with KM12, greater than 50 µM; in the test on A498, greater than 50 µM; in the test on UO31 cell line [1], greater than 50000 nM; in the test on A673 it was greater than 50 µM; in the test with TC32, greater than 50 µM.
